Assay [1] relates to glutathione in the Golgi apparatus of HeLa cells. The assay can be described thus: High-throughput cell imaging of cells loaded with GolgiFreSH-tracer. Type of assay: cell-based. On the procedure: 1-6. High-Throughput Cell Imaging
HeLa cells were cultured in DMEM (containing 10% heat-inactivated FBS (Hyclone), 100 U/ml of penicillin, 100 μg/ml of streptomycin sulfite and 2 mM glutamine and free of phenol red). HeLa cells were seeded in Greiner 96-well dishes (Sigma-Aldrich), and then cultured under the conditions of 37° C. and 5% CO2 for the indicated time. Before observation using a fluorescence microscope, the HeLa cells were incubated with a medium containing 10 μM of the GolgiFreSH-tracer for 0.5 to 1.5 hours. After washing twice with Hank's balanced salt solution, real-time images of the cells were acquired using an Operetta High-Content Imaging System (PerkinElmer). The imaging test was performed while the cells w ere incubated under the conditions of 37° C. and 5% CO2 in a chamber mounted in the microscope. The GolgiFreSH-tracer was excited with LED light at 410-430 nm and 490-510 nm, and the fluorescence of the tracer was detected through filters with 460-540 nm and 560-630 nm band intervals, respectively. BODIPY TR C5ceramide was excited with LED light at 560-580 nm, and the fluorescence thereof was detected through filters with 590-640 nm band intervals. Using the Harmony software, the experimental data were analyzed (see FIGS. 4, 5 and 8). […]

Assay [2] has as its system mitochondrial glutathione in HeLa cells. The assay can be described thus: Real-time imaging of living cells loaded with MitoFreSH-tracer (confocal, F510/F580 ratio). Type of assay: cell-based. The procedure: 1-5. Real-Time Imaging of Living Cells
HeLa cells were cultured in DMEM (containing 10% heat-inactivated FBS (Hyclone), 100 U/ml of penicillin, 100 μg/ml of streptomycin sulfate and 2 mM glutamine aid free of phenol red). HeLa cells were seeded in 35 mm cover glass bottom dishes (SPL Life Sciences), and then cultured under the conditions of 37° C. and 5% CO2 for foe indicated time. Before observation using a fluorescence microscope, the HeLa cells were incubated with 2 mL of a medium containing 10 μM of the FreSH-tracer-derived compound for 0.5 to 1.5 hours. After washing twice with PBS, real-time images of the cells were acquired using a Nikon A1 laser scanning confocal microscope. […] The FreSH-tracer-derived compound was excited with laser beams at 403 nm and 488 nm, and the fluorescence of the tracer-derived compound was detected through filters with 500-550 nm and 570-620 nm band intervals, respectively. Using NIS-Elements AR software, the experimental data were analyzed and the ratio of fluorescence was imaged (see FIGS. 4 and 5).
The present inventors have studied the applicability of the MitoFreSH-tracer to examination of changes in mitochondrial glutathione levels in living cells. […] The sensor fluorescence intensity ratio calculated from images of the living cells was reduced by treatment with diamide (FIGS. 4B and 4C). […]

With `CN(C)C(=O)/N=N/C(=O)N(C)C` [diamide, Diamide], the “fluorescence intensity ratio of GolgiFreSH-tracer in living cells” value in assay [1] (living cells treated with various concentrations of diamide) is reported as “decreased depending on the concentration”. Moreover, in assay [1] (sensor-loaded living cells, 1 mM diamide), the “sensor fluorescence intensity ratio of GolgiFreSH-tracer in living cells” value is recorded as “reduced”. In addition, the “sensor fluorescence intensity ratio (F510/F580) of MitoFreSH-tracer in living cells” value in assay [2] (HeLa cells loaded with MitoFreSH-tracer, 0.5 mM diamide) is “reduced”.
Antimycin A: the “fluorescence intensity ratio of MitoFreSH-tracer in living cells” value in assay [2] (cells treated with antimycin A for 75 minutes, various concentrations) is reported as “decreased depending on the concentration”.

For the origin of these results see patent US11472825B2, “Real-time fluorescence imaging sensor for measuring glutathione in organelle and preparation method therefor” (CELL2IN, INC., priority 2017, dated 2022).
